Experimental data reported in patent US10626106B2, “Substituted pyrrolidine amides I” (Gruenenthal GmbH, priority 2017, dated 2020).
Like-named read-outs stand apart in the source and are kept apart here.

Biological target: T1, Human Glucocorticoid Receptor (hGR) (Homo sapiens, UniProt P04150)
T1 construct: the resultant supernatant (=cytosol of IM9 cells) was centrifuged at 103,000 g for 60 minutes; host or cells: IM9 human lymphoblast cell line (cytosol fraction)
T1 sequence (P04150 1-777): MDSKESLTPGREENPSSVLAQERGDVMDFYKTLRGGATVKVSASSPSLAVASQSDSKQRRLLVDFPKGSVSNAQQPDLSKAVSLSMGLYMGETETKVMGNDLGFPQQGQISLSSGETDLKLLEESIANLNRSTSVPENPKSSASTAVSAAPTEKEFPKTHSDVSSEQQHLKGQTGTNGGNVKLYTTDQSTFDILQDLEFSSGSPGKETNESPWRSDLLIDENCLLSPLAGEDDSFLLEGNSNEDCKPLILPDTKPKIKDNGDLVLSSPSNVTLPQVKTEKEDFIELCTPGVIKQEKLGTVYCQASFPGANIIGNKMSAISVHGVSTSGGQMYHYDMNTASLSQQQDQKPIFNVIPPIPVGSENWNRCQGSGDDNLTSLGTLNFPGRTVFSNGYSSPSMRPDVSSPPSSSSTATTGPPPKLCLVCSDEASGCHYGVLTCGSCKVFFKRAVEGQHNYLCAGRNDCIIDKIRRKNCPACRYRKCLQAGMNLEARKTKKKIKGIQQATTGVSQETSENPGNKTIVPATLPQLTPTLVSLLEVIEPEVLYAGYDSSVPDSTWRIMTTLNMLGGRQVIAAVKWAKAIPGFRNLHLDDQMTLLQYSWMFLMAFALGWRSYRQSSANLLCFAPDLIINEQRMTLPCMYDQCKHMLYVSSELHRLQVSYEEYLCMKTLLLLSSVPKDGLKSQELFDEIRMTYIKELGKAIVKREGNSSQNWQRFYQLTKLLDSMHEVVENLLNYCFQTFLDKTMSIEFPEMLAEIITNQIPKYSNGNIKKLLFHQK
Assay: Human Glucocorticoid Receptor (hGR) Ligand-Binding Assay (competitive 3H-dexamethasone binding, IM9 cytosol)
Conditions: read-out: % inhibition hGR at 1 μM
Text: Human Glucocorticoid Receptor (hGR) Ligand-Binding Assay
Potential selective glucocorticoid receptor modulators of this intervention can be tested for their binding affinity at the glucocorticoid receptor using the binding assay described below.
Preferably, the glucocortitcoid receptor extracted from cytosol of IM9 cells is used for competitive radioligand binding assays to calculate the IC50 values and binding affinity (Ki value) of the compounds according to the present invention. Preferably, a fixed concentration of the radioligand 3H-dexamethasone and a range of concentrations of compounds according to the present invention (as unlabeled competitors of dexamethasone) are mixed with the extracted glucocorticoid receptor in order to measure the potency/affinity with which they compete for the binding of the radioligand. Preferably, by using competition curves the IC50 which is the concentration of competing ligand that displaces 50% of the specific binding of the radioligand is determined. Finally this IC50 value is converted to a Ki value.
The human lymphoblast cell line IM9 (ATCC, Bethesda, Md.) were cultivated in RPMI 1640 media containing 10% fetal bovine serum, penicillin (100 U/ml), streptomycin (100 μg/ml), and 2 mM L-glutamine at […] and 7% CO2 in a humidified incubator. Cells were centrifuged for 10 minutes at 1500 g and were washed in PBS and repelleted. Cell were then resuspended in homogenization buffer consisting of: 10 mM TES, 10 mM sodium molybdate, 1 mM EDTA, pH 7.4, 20 mM 2-mercaptoethanol, and 10% glycerol. Disruption of the cells was performed by nitrogen cavitation using 2×15 minutes at 600 to 750 psi nitrogen in a N2 cavitator at 0° C. The cell preparation was then centrifuged at 27,000 g for 15 minutes, and the resultant supernatant (=cytosol of IM9 cells) was centrifuged at 103,000 g for 60 minutes at 4° C. The amount of protein in the supernatant fraction was determined using a BCA assay kit and aliquots were snap frozen in a dry ice-acetone bath and stored at −70° C. Competitive binding assays were done in duplicate in homogenization buffer with a total volume of 200 μl. To this end, 1 mg of IM9 cytosol, 0.05 μCi (1.5 nM) of 3H-dexamethasone […] and compounds according to the present invention (=unlabeled competitors of dexamethasone; range of concentrations) were mixed. The reaction was stopped after incubation at 0° C. for 16 to 18 hours by the addition of 100 μl of a charcoal-dextran mixture (2% activated charcoal, 0.5% dextran in 10 mM Tris, 1 mM EDTA, pH 7.4). Another incubation step at 0° C. for 10 minutes followed before the samples were centrifuged for 5 minutes at 8200 g. 100 μl of the supernatant) was finally assayed for radioactivity by liquid scintillationspectrometry, and the IC50 values were determined graphically and were converted to Ki values.

[1] = compound at 1 μM, competition with 3H-dexamethasone, cytosol of IM9 cells

Cc1cc(-n2ncc3cc(N4C(=O)C[C@H](NC(=O)C(C)(F)F)C4c4ccccc4)ccc32)ccn1 (stereo in doubt) [Example 25, trans-2,2-difluoro-N-(1-(1-(2-methylpyridin-4-yl)-1H-indazol-5-yl)-5-oxo-2-phenylpyrrolidin-3-yl)propanamide] gave an inhibition at 1 µM greater than 85%.
For COc1cc(Cn2ncc3cc(N4C(=O)C[C@H](NC(=O)C5CC5)C4c4ccccc4)ccc32)ccn1 (stereo in doubt) [Example 40, trans-N-(1-(1-((2-methoxypyridin-4-yl)methyl)-1H-indazol-5-yl)-5-oxo-2-phenylpyrrolidin-3-yl)cyclopropanecarboxamide], the inhibition at 1 µM [1] was 40 to 60%.
For Cc1ccc(-n2ncc3cc(N4C(=O)C[C@H](NC(=O)C(C)(F)F)C4c4ccccc4)ccc32)cn1 (stereo in doubt) [Example 24, trans-2,2-difluoro-N-(1-(1-(6-methylpyridin-3-yl)-1H-indazol-5-yl)-5-oxo-2-phenylpyrrolidin-3-yl)propanamide], the inhibition at 1 µM was 60 to 85%.
For Cc1nc(C(=O)N[C@H]2CC(=O)N(c3ccc4c(cnn4-c4ccc(=O)n(C)c4)c3)[C@@H]2c2ccccc2)no1 [Example 51, 5-methyl-N-[(2R,3S)-1-[1-(1-methyl-6-oxo-3-pyridyl)indazol-5-yl]-5-oxo-2-phenyl-pyrrolidin-3-yl]-1,2,4-oxadiazole-3-carboxamide], the inhibition at 1 µM [1] was greater than 85%.
Work on COc1ccc(-n2ncc3cc(N4C(=O)C[C@H](NC(=O)C(C)(F)F)C4c4ccccc4)ccc32)cn1 (stereo in doubt) [Example 22, trans-2,2-difluoro-N-(1-(1-(6-methoxypyridin-3-yl)-1H-indazol-5-yl)-5-oxo-2-phenylpyrrolidin-3-yl)propanamide] yielded an inhibition at 1 µM [1] of 60 to 85%.
For Cn1cc(-n2ncc3cc(N4C(=O)C[C@H](NC(=O)C5(F)CC5)[C@H]4c4ccccc4)ccc32)ccc1=O [Example 18, 1-fluoro-N-((2R,3S)-1-(1-(1-methyl-6-oxo-1,6-dihydropyridin-3-yl)-1H-indazol-5-yl)-5-oxo-2-phenylpyrrolidin-3-yl)cyclopropanecarboxamide], the inhibition at 1 µM [1] was greater than 85%.
Cn1ccc(Cn2ncc3cc(N4C(=O)C[C@H](NC(=O)C(C)(F)F)C4c4ccccc4)ccc32)n1 (stereo in doubt) [Example 32, trans-2,2-difluoro-N-(1-(1-((1-methyl-1H-pyrazol-3-yl)methyl)-1H-indazol-5-yl)-5-oxo-2-phenylpyrrolidin-3-yl)propanamide] was tested, and the inhibition at 1 µM [1] was 60 to 85%.
For CC(F)(F)C(=O)N[C@H]1CC(=O)N(c2ccc3c(cnn3-c3ccc(F)cn3)c2)C1c1ccccc1 (stereo in doubt) [Example 9, trans-2,2-difluoro-N-(1-(1-(5-fluoropyridin-2-yl)-1H-indazol-5-yl)-5-oxo-2-phenylpyrrolidin-3-yl)propanamide], the inhibition at 1 µM was greater than 85%.
For CC(F)(F)C(=O)N[C@H]1CC(=O)N(c2ccc3c(cnn3-c3ccncc3)c2)C1c1ccccc1 (stereo in doubt) [Example 23, trans-2,2-difluoro-N-(5-oxo-2-phenyl-1-(1-(pyridin-4-yl)-1H-indazol-5-yl)pyrrolidin-3-yl)propanamide], the inhibition at 1 µM was greater than 85%.
For CC(F)(F)C(=O)N[C@H]1CC(=O)N(c2ccc3c(cnn3C3CCN(C(=O)C4CC4)CC3)c2)C1c1ccccc1 (stereo in doubt) [Example 35, trans-2,2-difluoro-N-(1-(1-(1-(cyclopropanecarbonyl)piperidin-4-yl)-1H-indazol-5-yl)-5-oxo-2-phenylpyrrolidin-3-yl)propanamide], the inhibition at 1 µM [1] was 60 to 85%.
COc1ccc(Cn2ncc3cc(N4C(=O)C[C@H](NC(=O)C(C)(F)F)[C@H]4c4ccccc4)ccc32)cn1 (relative stereo) [Example 33, trans-2,2-difluoro-N-(1-(1-((6-methoxypyridin-3-yl)methyl)-1H-indazol-5-yl)-5-oxo-2-phenylpyrrolidin-3-yl)propanamide] was tested, and the inhibition at 1 µM [1] was greater than 85%.
Work on Cn1cc(-n2ncc3cc(N4C(=O)C[C@H](NC(=O)C(C)(F)F)C4c4ccc5c(c4)OCCO5)ccc32)ccc1=O (stereo in doubt) [Example 3, trans-2,2-difluoro-N-(5-oxo-2-(2,3-dihydrobenzo[b][1,4]dioxin-6-yl)-1-(1-(1-methyl-6-oxo-1,6-dihydropyridin-3-yl)-1H-indazol-5-yl)pyrrolidin-3-yl)propanamide] yielded an inhibition at 1 µM [1] greater than 85%.
Cc1ccccc1[C@@H]1[C@@H](NC(=O)C2CC2)CC(=O)N1c1ccc2c(cnn2-c2ccc(=O)n(C)c2)c1 [Example 41, N-((2R,3S)-1-(1-(1-methyl-6-oxo-1,6-dihydropyridin-3-yl)-1H-indazol-5-yl)-5-oxo-2-(o-tolyl)pyrrolidin-3-yl)cyclopropanecarboxamide] was tested, and the inhibition at 1 µM [1] was 40 to 60%.
In the case of Cn1cc(-n2ncc3cc(N4C(=O)C[C@H](NC(=O)c5cocn5)[C@H]4c4ccccc4)ccc32)ccc1=O [Example 50, N-[(2R,3S)-1-[1-(1-methyl-6-oxo-3-pyridyl)indazol-5-yl]-5-oxo-2-phenyl-pyrrolidin-3-yl]oxazole-4-carboxamide], the inhibition at 1 µM [1] is reported as 60 to 85%.
Cn1cc(-n2ncc3cc(N4C(=O)C[C@H](NC(=O)C(C)(F)F)[C@H]4c4cccc(F)c4)ccc32)ccc1=O [Example 5, 2,2-difluoro-N-((2R,3S)-2-(3-fluorophenyl)-1-(1-(1-methyl-6-oxo-1,6-dihydropyridin-3-yl)-1H-indazol-5-yl)-5-oxopyrrolidin-3-yl)propanamide] gave an inhibition at 1 µM [1] greater than 85%.
Work on Cn1cc(-n2ncc3cc(N4C(=O)C[C@H](NC(=O)[C@H]5CCCO5)[C@H]4c4ccccc4)ccc32)ccc1=O [Example 48, (R)—N-[(2R,3S)-1-[1-(1-methyl-6-oxo-3-pyridyl)indazol-5-yl]-5-oxo-2-phenyl-pyrrolidin-3-yl]tetrahydrofuran-2-carboxamide] yielded an inhibition at 1 µM [1] of 60 to 85%.
With COc1cc([C@@H]2[C@@H](NC(=O)C(C)(F)F)CC(=O)N2c2ccc3c(cnn3-c3ccc(=O)n(C)c3)c2)ccc1F [Example 15, 2,2-difluoro-N-((2R,3S)-2-(4-fluoro-3-methoxyphenyl)-1-(1-(1-methyl-6-oxo-1,6-dihydropyridin-3-yl)-1H-indazol-5-yl)-5-oxopyrrolidin-3-yl)propanamide] the inhibition at 1 µM [1] was 60 to 85%.
Compound Cn1ccc(Cn2ncc3cc(N4C(=O)C[C@H](NC(=O)C(C)(F)F)C4c4ccccc4)ccc32)cc1=O (stereo in doubt) [Example 38, trans-2,2-difluoro-N-(1-(1-((1-methyl-2-oxo-1,2-dihydropyridin-4-yl)methyl)-1H-indazol-5-yl)-5-oxo-2-phenylpyrrolidin-3-yl)propanamide] has an inhibition at 1 µM [1] of 60 to 85%.
Cn1cc(-n2ncc3cc(N4C(=O)C[C@H](NC(=O)C(C)(F)F)C4c4ccc(F)cc4F)ccc32)ccc1=O (stereo in doubt) [Example 2, trans-2,2-difluoro-N-(5-oxo-2-(2,4-difluorophenyl)-1-(1-(1-methyl-6-oxo-1,6-dihydropyridin-3-yl)-1H-indazol-5-yl)pyrrolidin-3-yl)propanamide] was tested, and the inhibition at 1 µM [1] was greater than 85%.
